The source of these data is patent US9260439B2, “Dihydropyrrolopyrimidine derivatives” (PFIZER INC., priority 2014, dated 2016).

The assay has as its target truncated PI3Kα (p110α/iSH2 p85α) (Homo sapiens (Human), UniProt P42336). As to the kind of experiment: PI3KA_Act fluorescence polarization kinase assay (Ki). Conditions: 1 mM ATP. The format is biochemical. In short, it runs like this:
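p110α/iSH2 p85α (0.5 nM) was reacted with 30 μM sonicated PIP2 in 50 mM HEPES pH 7.4, 150 mM NaCl, 5 mM MgCl2, 1 mM DTT and 0.05% CHAPS for 30 min at room temperature, then stopped with EDTA. PIP3 was detected by fluorescence polarization (GST-Grp1 PH domain/TAMRA-PIP3), and Ki came from a Morrison tight-binding fit.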
In general terms: Polarisation of emitted light reports the rotation of a fluorescent probe.

Sequence of truncated PI3Kα (p110α/iSH2 p85α) (P42336 whole entry, the tested form may be a part): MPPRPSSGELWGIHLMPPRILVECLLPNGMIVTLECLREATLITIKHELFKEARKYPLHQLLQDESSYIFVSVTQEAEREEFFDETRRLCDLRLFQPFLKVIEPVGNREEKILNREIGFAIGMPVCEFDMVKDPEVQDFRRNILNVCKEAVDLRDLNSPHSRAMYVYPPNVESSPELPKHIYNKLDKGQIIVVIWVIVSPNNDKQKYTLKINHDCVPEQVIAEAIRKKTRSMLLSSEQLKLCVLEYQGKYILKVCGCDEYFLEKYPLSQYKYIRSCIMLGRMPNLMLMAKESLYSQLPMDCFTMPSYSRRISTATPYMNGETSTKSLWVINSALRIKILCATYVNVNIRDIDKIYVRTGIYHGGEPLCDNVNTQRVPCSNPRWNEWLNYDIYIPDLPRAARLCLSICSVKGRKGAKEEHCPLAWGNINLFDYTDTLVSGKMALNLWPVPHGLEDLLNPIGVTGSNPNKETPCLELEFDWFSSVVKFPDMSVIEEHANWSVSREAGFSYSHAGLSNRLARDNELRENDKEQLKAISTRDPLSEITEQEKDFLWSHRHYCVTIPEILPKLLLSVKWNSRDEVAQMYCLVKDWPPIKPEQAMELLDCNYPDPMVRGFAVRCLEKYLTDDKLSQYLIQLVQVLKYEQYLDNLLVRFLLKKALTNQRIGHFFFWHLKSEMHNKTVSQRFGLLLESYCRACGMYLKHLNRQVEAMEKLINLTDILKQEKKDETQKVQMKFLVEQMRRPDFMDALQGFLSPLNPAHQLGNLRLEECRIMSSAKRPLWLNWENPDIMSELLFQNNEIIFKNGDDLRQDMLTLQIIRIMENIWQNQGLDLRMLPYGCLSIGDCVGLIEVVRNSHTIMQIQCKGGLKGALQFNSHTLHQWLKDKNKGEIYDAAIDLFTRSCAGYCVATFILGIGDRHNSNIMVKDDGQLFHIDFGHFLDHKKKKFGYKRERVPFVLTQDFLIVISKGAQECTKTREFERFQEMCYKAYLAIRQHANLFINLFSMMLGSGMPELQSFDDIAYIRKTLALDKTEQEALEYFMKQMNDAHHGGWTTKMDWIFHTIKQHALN

On to `CN1CC[C@](C)(N2CCc3c(-c4cnc(N)nc4)nc(N4CCOCC4)nc32)C1` [Example 418, 5-{7-[(3S)-1,3-dimethylpyrrolidin-3-yl]-2-(morpholin-4-yl)-6,7-dihydro-5H-pyrrolo[2,3-d]pyrimidin-4-yl}pyrimidin-2-amine], for which the “PI3KA_Act Ki” value came to 0.320 nM. `CN1CC[C@@](C)(N2CCc3c(-c4cnc(N)nc4)nc(N4CCOCC4)nc32)C1` [Example 419, 5-{7-[(3R)-1,3-dimethylpyrrolidin-3-yl]-2-(morpholin-4-yl)-6,7-dihydro-5H-pyrrolo[2,3-d]pyrimidin-4-yl}pyrimidin-2-amine]: the “PI3KA_Act Ki” value turned out to be 1.990 nM. `CC(C)N1CC[C@](C)(N2CCc3c(-c4cnc(N)nc4)nc(N4CCOCC4)nc32)C1` [Example 420, 5-{7-[(3S)-3-methyl-1-(propan-2-yl)pyrrolidin-3-yl]-2-(morpholin-4-yl)-6,7-dihydro-5H-pyrrolo[2,3-d]pyrimidin-4-yl}pyrimidin-2-amine]: the “PI3KA_Act Ki” value is 0.601 nM.

Turning to `C[C@]1(N2CCc3c(-c4cnc(N)nc4)nc(N4CCOCC4)nc32)CCN(CC(F)F)C1` [Example 421, 5-{7-[(3S)-1-(2,2-difluoroethyl)-3-methylpyrrolidin-3-yl]-2-(morpholin-4-yl)-6,7-dihydro-5H-pyrrolo[2,3-d]pyrimidin-4-yl}pyrimidin-2-amine], the “PI3KA_Act Ki” value amounted to 0.071 nM. On to `CC(C)(O)CN1CC[C@](C)(N2CCc3c(-c4cnc(N)nc4)nc(N4CCOCC4)nc32)C1` [Example 422, 1-{(3S)-3-[4-(2-aminopyrimidin-5-yl)-2-(morpholin-4-yl)-5,6-dihydro-7H-pyrrolo[2,3-d]pyrimidin-7-yl]-3-methylpyrrolidin-1-yl}-2-methylpropan-2-ol], for which the “PI3KA_Act Ki” value was determined as 0.415 nM. As for `COC(=O)C(C)(C)N1CC[C@](C)(N2CCc3c(-c4cnc(N)nc4)nc(N4CCOCC4)nc32)C1` [Example 423, methyl 2-{(3S)-3-[4-(2-aminopyrimidin-5-yl)-2-(morpholin-4-yl)-5,6-dihydro-7H-pyrrolo[2,3-d]pyrimidin-7-yl]-3-methylpyrrolidin-1-yl}-2-methylpropanoate], the “PI3KA_Act Ki” value came to 0.445 nM. On to `CC(C)(C(N)=O)N1CC[C@](C)(N2CCc3c(-c4cnc(N)nc4)nc(N4CCOCC4)nc32)C1` [Example 424, 2-{(3S)-3-[4-(2-aminopyrimidin-5-yl)-2-(morpholin-4-yl)-5,6-dihydro-7H-pyrrolo[2,3-d]pyrimidin-7-yl]-3-methylpyrrolidin-1-yl}-2-methylpropanamide], for which the “PI3KA_Act Ki” value is recorded as 0.321 nM. With `C[C@]1(N2CCc3c(-c4cnc(N)nc4)nc(N4CCOCC4)nc32)CCN(C2CCCC2)C1` [Example 425, 5-{7-[(3S)-1-cyclopentyl-3-methylpyrrolidin-3-yl]-2-(morpholin-4-yl)-6,7-dihydro-5H-pyrrolo[2,3-d]pyrimidin-4-yl}pyrimidin-2-amine], the “PI3KA_Act Ki” value stood at 0.311 nM.

Consider `CC1(N2CCc3c(-c4cnc(N)nc4)nc(N4CCOCC4)nc32)CCNCC1.Cl` [Example 430, 5-[7-(4-methylpiperidin-4-yl)-2-(morpholin-4-yl)-6,7-dihydro-5H-pyrrolo[2,3-d]pyrimidin-4-yl]pyrimidin-2-amine hydrochloride], for which the “PI3KA_Act Ki” value is given as 0.785 nM. Take `CC(C)(C)OC(=O)N1CCC(C)(N2CCc3c(-c4cnc(N)nc4)nc(N4CCOCC4)nc32)CC1` [Example 433, tert-butyl 4-[4-(2-aminopyrimidin-5-yl)-2-(morpholin-4-yl)-5,6-dihydro-7H-pyrrolo[2,3-d]pyrimidin-7-yl]-4-methylpiperidine-1-carboxylate]: the “PI3KA_Act Ki” value is on record as 0.024 nM. In the case of `CS(=O)(=O)N1C[C@H]2C[C@@]2(N2CCc3c(-c4cnc(N)nc4)nc(N4CCOCC4)nc32)C1` [Example 436, 5-{7-[(1S,5R)-3-(methylsulfonyl)-3-azabicyclo[3.1.0]hex-1-yl]-2-(morpholin-4-yl)-6,7-dihydro-5H-pyrrolo[2,3-d]pyrimidin-4-yl}pyrimidin-2-amine], the “PI3KA_Act Ki” value was 0.189 nM.

For the compound `CS(=O)(=O)N1C[C@@H]2C[C@]2(N2CCc3c(-c4cnc(N)nc4)nc(N4CCOCC4)nc32)C1` [Example 437, 5-{7-[(1R,5S)-3-(methylsulfonyl)-3-azabicyclo[3.1.0]hex-1-yl]-2-(morpholin-4-yl)-6,7-dihydro-5H-pyrrolo[2,3-d]pyrimidin-4-yl}pyrimidin-2-amine], the “PI3KA_Act Ki” value turned out to be 0.603 nM. One may read the Ki as the dissociation constant of the complex between target and ligand, obtained from inhibition or displacement. Low values mean a stronger hold on the target, high ones a looser hold on the target. Take `CC(C)(C)OC(=O)N1C[C@@H]2C[C@H]1[C@H]2N1CCc2c(-c3cnc(N)nc3)nc(N3CCOCC3)nc21` [Example 438, tert-butyl (1S,4S,5S)-5-[4-(2-aminopyrimidin-5-yl)-2-(morpholin-4-yl)-5,6-dihydro-7H-pyrrolo[2,3-d]pyrimidin-7-yl]-2-azabicyclo[2.1.1] hexane-2-carboxylate]: the affinity, expressed as Ki, was 7.45 nM. The compound `CS(=O)(=O)N1C[C@@H]2C[C@H]1[C@H]2N1CCc2c(-c3cnc(N)nc3)nc(N3CCOCC3)nc21` [Example 441, 5-{7-[(1S,4S,5S)-2-(methylsulfonyl)-2-azabicyclo[2.1.1]hex-5-yl]-2-(morpholin-4-yl)-6,7-dihydro-5H-pyrrolo[2,3-d]pyrimidin-4-yl}pyrimidin-2-amine] yielded a Ki of 0.432 nM. Regarding `C[C@H]1COCCN1c1nc(-c2cnc(N)nc2)c2c(n1)N([C@H]1C[C@@H](N)C1)CC2.Cl` [Example 442, 5-{7-(cis-3-aminocyclobutyl)-2-[(3S)-3-methylmorpholin-4-yl]-6,7-dihydro-5H-pyrrolo[2,3-d]pyrimidin-4-yl}pyrimidin-2-amine hydrochloride], the “PI3KA_Act Ki” value is on record as 1.349 nM.

For the compound `C[C@H]1COCCN1c1nc(-c2cnc(N)nc2)c2c(n1)N([C@H]1C[C@H](N)C1)CC2.Cl` [Example 443, 5-{7-(trans-3-aminocyclobutyl)-2-[(3S)-3-methylmorpholin-4-yl]-6,7-dihydro-5H-pyrrolo[2,3-d]pyrimidin-4-yl}pyrimidin-2-amine hydrochloride], the “PI3KA_Act Ki” value was 0.944 nM. With `CN[C@H]1C[C@@H](N2CCc3c(-c4cnc(N)nc4)nc(N4CCOC[C@@H]4C)nc32)C1.Cl` [Example 444, 5-{7-[cis-3-(methylamino)cyclobutyl]-2-[(3S)-3-methylmorpholin-4-yl]-6,7-dihydro-5H-pyrrolo[2,3-d]pyrimidin-4-yl}pyrimidin-2-amine hydrochloride], the “PI3KA_Act Ki” value is given as 2.125 nM. Consider `CN[C@H]1C[C@H](N2CCc3c(-c4cnc(N)nc4)nc(N4CCOC[C@@H]4C)nc32)C1.Cl` [Example 445, 5-{7-[trans-3-(methylamino)cyclobutyl]-2-[(3S)-3-methylmorpholin-4-yl]-6,7-dihydro-5H-pyrrolo[2,3-d]pyrimidin-4-yl}pyrimidin-2-amine hydrochloride], for which the “PI3KA_Act Ki” value came out at 0.993 nM. On to `C[C@H]1COCCN1c1nc(-c2cnc(N)nc2)c2c(n1)N([C@H]1C[C@H](NC(=O)OC(C)(C)C)C1)CC2` [Example 446, tert-butyl (trans-3-{4-(2-aminopyrimidin-5-yl)-2-[(3S)-3-methylmorpholin-4-yl]-5,6-dihydro-7H-pyrrolo[2,3-d]pyrimidin-7-yl}cyclobutyl)carbamate], for which the “PI3KA_Act Ki” value amounted to 0.433 nM. `C[C@H]1COCCN1c1nc(-c2cnc(N)nc2)c2c(n1)N([C@H]1C[C@@H](NC(=O)OC(C)(C)C)C1)CC2` [Example 447, tert-butyl (cis-3-{4-(2-aminopyrimidin-5-yl)-2-[(3S)-3-methylmorpholin-4-yl]-5,6-dihydro-7H-pyrrolo[2,3-d]pyrimidin-7-yl}cyclobutyl)carbamate]: the “PI3KA_Act Ki” value turned out to be 0.644 nM. Take `C[C@H]1COCCN1c1nc(-c2cnc(N)nc2)c2c(n1)N(C1(C)CNC1)CC2.Cl` [Example 450, 5-{7-(3-methylazetidin-3-yl)-2-[(3S)-3-methylmorpholin-4-yl]-6,7-dihydro-5H-pyrrolo[2,3-d]pyrimidin-4-yl}pyrimidin-2-amine hydrochloride]: the “PI3KA_Act Ki” value stood at 0.167 nM. Turning to `CC(=O)N1CC(N2CCc3c(-c4cnc(N)nc4)nc(N4CCOC[C@@H]4C)nc32)C1` [Example 451, 1-(3-{4-(2-aminopyrimidin-5-yl)-2-[(3S)-3-methylmorpholin-4-yl]-5,6-dihydro-7H-pyrrolo[2,3-d]pyrimidin-7-yl}azetidin-1-yl)ethanone], the “PI3KA_Act Ki” value amounted to 0.595 nM.

Regarding `CC(=O)N1CC(C)(N2CCc3c(-c4cnc(N)nc4)nc(N4CCOC[C@@H]4C)nc32)C1` [Example 452, 1-(3-{4-(2-aminopyrimidin-5-yl)-2-[(3S)-3-methylmorpholin-4-yl]-5,6-dihydro-7H-pyrrolo[2,3-d]pyrimidin-7-yl}-3-methylazetidin-1-yl)ethanone], the “PI3KA_Act Ki” value came out at 0.090 nM. Same read-out and setting: with `CC(C)C(=O)N1CC(N2CCc3c(-c4cnc(N)nc4)nc(N4CCOC[C@@H]4C)nc32)C1` [Example 453, 1-(3-{4-(2-aminopyrimidin-5-yl)-2-[(3S)-3-methylmorpholin-4-yl]-5,6-dihydro-7H-pyrrolo[2,3-d]pyrimidin-7-yl}azetidin-1-yl)-2-methylpropan-1-one] the figure was 0.973 nM; with `C[C@H]1COCCN1c1nc(-c2cnc(N)nc2)c2c(n1)N(C1CN(C(=O)C(C)(C)O)C1)CC2` [Example 454, 1-(3-{4-(2-aminopyrimidin-5-yl)-2-[(3S)-3-methylmorpholin-4-yl]-5,6-dihydro-7H-pyrrolo[2,3-d]pyrimidin-7-yl}azetidin-1-yl)-2-hydroxy-2-methylpropan-1-one], 0.387 nM; with `C[C@H]1COCCN1c1nc(-c2cnc(N)nc2)c2c(n1)N(C1(C)CN(C(=O)C(C)(C)O)C1)CC2` [Example 455, 1-(3-{4-(2-aminopyrimidin-5-yl)-2-[(3S)-3-methylmorpholin-4-yl]-5,6-dihydro-7H-pyrrolo[2,3-d]pyrimidin-7-yl}-3-methylazetidin-1-yl)-2-hydroxy-2-methylpropan-1-one], 0.187 nM.
